How the values were obtained:
[1] = molecular target: T1, Aryl hydrocarbon receptor (Homo sapiens, UniProt P35869); assay: Aryl hydrocarbon receptor antagonist (species not specified)
T1 sequence (P35869 whole entry): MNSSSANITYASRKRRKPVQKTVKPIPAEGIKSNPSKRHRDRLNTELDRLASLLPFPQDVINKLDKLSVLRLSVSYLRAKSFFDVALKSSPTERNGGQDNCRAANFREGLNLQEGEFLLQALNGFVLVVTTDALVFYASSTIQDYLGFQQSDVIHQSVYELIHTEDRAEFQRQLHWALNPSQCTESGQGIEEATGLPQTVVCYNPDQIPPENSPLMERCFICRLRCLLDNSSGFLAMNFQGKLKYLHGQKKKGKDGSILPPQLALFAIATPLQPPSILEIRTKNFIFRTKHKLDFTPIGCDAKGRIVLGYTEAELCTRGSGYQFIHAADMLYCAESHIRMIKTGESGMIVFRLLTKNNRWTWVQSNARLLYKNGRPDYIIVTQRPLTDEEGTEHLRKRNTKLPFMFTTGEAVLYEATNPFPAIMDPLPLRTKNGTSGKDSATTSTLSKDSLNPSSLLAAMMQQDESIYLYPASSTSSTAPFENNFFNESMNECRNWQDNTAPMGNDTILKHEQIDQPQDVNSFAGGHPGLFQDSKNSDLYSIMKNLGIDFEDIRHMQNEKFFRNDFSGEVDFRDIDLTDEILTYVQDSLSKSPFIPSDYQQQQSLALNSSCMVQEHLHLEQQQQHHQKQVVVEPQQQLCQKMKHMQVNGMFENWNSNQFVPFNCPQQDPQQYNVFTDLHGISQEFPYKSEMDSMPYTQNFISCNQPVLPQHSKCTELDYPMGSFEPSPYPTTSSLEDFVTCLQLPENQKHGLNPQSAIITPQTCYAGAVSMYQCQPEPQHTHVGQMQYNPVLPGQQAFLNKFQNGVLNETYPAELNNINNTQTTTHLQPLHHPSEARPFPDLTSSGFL

Cytochrome P450 2E1 [2] = molecular target: T2, Cytochrome P450 2E1 (Homo sapiens, UniProt P05181); assay: Clinically relevant inducers of human liver microsomal P450 enzymes, isoform CYP2E1; type: ADME; settings: microsomes
Cytochrome P450 2A6 [3] = molecular target: T3, Cytochrome P450 2A6 (Homo sapiens, UniProt P11509); assay: Clinically relevant inducers of human liver microsomal P450 enzymes, isoform CYP2A6; type: ADME; settings: microsomes
T3 sequence (P11509 whole entry): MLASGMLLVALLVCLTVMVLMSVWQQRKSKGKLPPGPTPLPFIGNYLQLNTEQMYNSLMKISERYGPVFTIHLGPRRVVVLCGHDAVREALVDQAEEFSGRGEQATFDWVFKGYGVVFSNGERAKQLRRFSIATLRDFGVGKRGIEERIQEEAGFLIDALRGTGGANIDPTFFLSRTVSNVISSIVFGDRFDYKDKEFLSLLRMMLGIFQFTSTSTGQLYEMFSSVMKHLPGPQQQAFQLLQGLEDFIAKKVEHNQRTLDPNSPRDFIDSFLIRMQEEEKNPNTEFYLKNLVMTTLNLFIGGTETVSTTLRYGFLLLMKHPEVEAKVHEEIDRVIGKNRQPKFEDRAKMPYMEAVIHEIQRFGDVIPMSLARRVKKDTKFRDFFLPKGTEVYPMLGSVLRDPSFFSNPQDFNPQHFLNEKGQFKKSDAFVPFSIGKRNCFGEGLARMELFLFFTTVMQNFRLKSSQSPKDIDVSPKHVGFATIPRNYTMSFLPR

Cytochrome P450 2A6 [4] = molecular target: T3, Cytochrome P450 2A6; assay: Clinically relevant substrates of human liver microsomal P450 enzymes, isoform CYP2A6; type: ADME; settings: microsomes
Cytochrome P450 1A2 = molecular target: T4, Cytochrome P450 1A2 (Homo sapiens, UniProt P05177); assay: Clinically relevant inducers of human liver microsomal P450 enzymes, isoform CYP1A2; type: ADME; settings: microsomes
T4 sequence (P05177 whole entry): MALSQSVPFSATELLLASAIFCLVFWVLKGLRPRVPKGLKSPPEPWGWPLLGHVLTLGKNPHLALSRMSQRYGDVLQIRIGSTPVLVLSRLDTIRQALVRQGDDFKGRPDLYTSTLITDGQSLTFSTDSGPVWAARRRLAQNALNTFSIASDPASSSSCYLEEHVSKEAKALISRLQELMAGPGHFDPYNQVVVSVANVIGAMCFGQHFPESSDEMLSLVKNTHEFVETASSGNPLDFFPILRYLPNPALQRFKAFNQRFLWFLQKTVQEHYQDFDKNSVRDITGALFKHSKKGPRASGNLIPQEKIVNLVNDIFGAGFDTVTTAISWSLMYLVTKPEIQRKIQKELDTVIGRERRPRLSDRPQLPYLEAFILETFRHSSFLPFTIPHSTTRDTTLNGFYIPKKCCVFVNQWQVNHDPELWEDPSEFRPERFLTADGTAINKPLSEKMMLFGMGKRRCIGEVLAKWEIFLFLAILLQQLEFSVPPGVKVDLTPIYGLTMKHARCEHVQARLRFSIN

[5] = molecular target: T1, Aryl hydrocarbon receptor; assay: Aryl hydrocarbon receptor agonist (species not specified)
Cytochrome P450 2C19 [6] = molecular target: T5, Cytochrome P450 2C19 (Homo sapiens, UniProt P33261); assay: Clinically relevant substrates of human liver microsomal P450 enzymes, isoform CYP2C19; type: ADME; settings: microsomes
Sulfotransferase 1C2 = Sulfotransferase 1C2 (Homo sapiens, UniProt O00338); assay: Major substrate of human cytosolic sulfotransferase SULT1C2; type: ADME
Sulfotransferase 1A2 = Sulfotransferase 1A2 (Homo sapiens, UniProt P50226); assay: Major substrate of human cytosolic sulfotransferase SULT1A2; type: ADME
Sulfotransferase 1C4 = Sulfotransferase 1C4 (Homo sapiens, UniProt O75897); assay: Major substrate of human cytosolic sulfotransferase SULT1C4; type: ADME
Sulfotransferase 1B1 = Sulfotransferase 1B1 (Homo sapiens, UniProt O43704); assay: Major substrate of human cytosolic sulfotransferase SULT1B1; type: ADME
[7] = molecular target: T6, UDP-glucuronosyltransferase 1A6 (Homo sapiens, UniProt P19224); assay: Substrate of human UDP-glucuronosyltransferase UGT1A6; type: ADME
T6 sequence (P19224 whole entry): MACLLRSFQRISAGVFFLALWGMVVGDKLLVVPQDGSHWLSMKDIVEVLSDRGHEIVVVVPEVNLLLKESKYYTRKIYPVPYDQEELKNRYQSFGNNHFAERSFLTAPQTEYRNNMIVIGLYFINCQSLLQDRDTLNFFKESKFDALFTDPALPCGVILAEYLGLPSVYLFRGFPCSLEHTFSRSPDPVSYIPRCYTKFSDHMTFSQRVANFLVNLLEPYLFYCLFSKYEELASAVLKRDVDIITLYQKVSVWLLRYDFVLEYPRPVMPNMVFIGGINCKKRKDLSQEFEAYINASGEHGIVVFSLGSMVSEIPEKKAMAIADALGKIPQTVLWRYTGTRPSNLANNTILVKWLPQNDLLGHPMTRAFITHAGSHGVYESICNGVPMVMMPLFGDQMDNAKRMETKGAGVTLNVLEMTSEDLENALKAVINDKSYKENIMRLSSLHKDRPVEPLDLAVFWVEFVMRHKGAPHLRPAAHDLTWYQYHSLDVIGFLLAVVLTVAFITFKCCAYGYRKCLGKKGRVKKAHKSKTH

Sulfotransferase 1A1 = Sulfotransferase 1A1 (Homo sapiens, UniProt P50225); assay: Major substrate of human cytosolic sulfotransferase SULT1A1; type: ADME
Sulfotransferase 4A1 = molecular target: T7, Sulfotransferase 4A1 (Homo sapiens, UniProt Q9BR01); assay: Major substrate of human cytosolic sulfotransferase SULT4A1_v1; type: ADME
T7 sequence (Q9BR01 whole entry): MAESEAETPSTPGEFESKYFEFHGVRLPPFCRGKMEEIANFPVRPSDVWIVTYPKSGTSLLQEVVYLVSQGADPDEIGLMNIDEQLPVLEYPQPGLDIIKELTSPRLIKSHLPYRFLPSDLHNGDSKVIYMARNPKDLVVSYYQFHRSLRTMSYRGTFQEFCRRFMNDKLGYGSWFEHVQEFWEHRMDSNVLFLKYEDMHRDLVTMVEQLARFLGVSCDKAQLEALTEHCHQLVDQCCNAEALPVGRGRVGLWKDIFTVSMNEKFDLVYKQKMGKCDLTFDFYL

Sulfotransferase 1A3 = Sulfotransferase 1A3 (Homo sapiens, UniProt P0DMM9); assay: Major substrate of human cytosolic sulfotransferase SULT1A3; type: ADME
Cytochrome P450 2E1 [8] = molecular target: T2, Cytochrome P450 2E1; assay: Clinically relevant substrates of human liver microsomal P450 enzymes, isoform CYP2E1; type: ADME; settings: microsomes
Cytochrome P450 2C19 [9] = molecular target: T5, Cytochrome P450 2C19; assay: Clinically relevant inducers of human liver microsomal P450 enzymes, isoform CYP2C19; type: ADME; settings: microsomes
Cytochrome P450 2C8 = molecular target: T8, Cytochrome P450 2C8 (Homo sapiens, UniProt P10632); assay: Clinically relevant inducers of human liver microsomal P450 enzymes, isoform CYP2C8; type: ADME; settings: microsomes
T8 sequence (P10632 whole entry): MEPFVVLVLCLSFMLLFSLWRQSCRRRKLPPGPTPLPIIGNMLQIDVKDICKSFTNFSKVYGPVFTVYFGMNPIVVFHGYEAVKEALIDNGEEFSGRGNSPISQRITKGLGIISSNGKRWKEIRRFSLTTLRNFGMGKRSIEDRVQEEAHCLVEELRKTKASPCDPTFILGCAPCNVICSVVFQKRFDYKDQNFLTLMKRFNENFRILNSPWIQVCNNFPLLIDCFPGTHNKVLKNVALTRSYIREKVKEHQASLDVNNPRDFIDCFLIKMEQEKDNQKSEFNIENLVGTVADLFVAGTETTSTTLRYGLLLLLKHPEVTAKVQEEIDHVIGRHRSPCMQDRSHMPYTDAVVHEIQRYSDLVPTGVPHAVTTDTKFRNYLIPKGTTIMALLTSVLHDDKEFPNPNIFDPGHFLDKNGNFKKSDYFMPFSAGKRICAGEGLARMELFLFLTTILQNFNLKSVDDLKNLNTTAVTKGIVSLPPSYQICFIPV

Cytochrome P450 2B6 = molecular target: T9, Cytochrome P450 2B6 (Homo sapiens, UniProt P20813); assay: Clinically relevant inducers of human liver microsomal P450 enzymes, isoform CYP2B6; type: ADME; settings: microsomes
T9 sequence (P20813 whole entry): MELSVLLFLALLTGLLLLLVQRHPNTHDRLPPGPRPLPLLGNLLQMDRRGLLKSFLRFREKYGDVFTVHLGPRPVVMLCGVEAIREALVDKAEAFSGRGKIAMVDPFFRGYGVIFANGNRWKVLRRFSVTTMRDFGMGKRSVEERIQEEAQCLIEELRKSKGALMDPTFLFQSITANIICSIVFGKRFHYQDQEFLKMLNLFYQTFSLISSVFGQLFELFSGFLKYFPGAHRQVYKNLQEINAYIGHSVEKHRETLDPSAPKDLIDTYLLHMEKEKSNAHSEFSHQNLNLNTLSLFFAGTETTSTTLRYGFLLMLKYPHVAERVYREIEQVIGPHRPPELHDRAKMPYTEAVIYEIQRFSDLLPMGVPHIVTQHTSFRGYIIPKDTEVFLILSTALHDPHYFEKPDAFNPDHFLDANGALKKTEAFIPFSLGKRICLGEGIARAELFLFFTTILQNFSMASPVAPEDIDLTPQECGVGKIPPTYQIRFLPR

T2 sequence (P05181 whole entry, canonical isoform): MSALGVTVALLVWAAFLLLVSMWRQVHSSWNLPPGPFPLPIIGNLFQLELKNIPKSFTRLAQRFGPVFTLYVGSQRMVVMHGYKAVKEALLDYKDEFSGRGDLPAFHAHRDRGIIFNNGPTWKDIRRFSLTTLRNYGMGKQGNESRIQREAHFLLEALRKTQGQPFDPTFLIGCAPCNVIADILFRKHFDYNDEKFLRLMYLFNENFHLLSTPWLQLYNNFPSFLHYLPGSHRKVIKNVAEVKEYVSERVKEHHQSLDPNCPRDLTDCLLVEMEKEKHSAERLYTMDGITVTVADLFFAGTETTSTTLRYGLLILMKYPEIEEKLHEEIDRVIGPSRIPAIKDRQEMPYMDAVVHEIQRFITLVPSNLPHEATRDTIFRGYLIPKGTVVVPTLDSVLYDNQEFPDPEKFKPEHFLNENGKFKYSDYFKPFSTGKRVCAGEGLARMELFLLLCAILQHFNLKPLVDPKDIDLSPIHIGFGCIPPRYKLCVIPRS
Sequence of Sulfotransferase 1A2 (P50226 whole entry): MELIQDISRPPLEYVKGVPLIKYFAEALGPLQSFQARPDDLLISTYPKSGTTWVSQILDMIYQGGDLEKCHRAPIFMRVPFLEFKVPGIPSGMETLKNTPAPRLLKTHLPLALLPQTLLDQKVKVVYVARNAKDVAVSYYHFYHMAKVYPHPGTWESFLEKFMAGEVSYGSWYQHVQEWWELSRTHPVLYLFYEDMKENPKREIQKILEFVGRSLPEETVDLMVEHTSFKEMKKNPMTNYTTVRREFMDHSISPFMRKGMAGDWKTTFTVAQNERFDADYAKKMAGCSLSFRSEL
Sequence of Sulfotransferase 1C4 (O75897 whole entry): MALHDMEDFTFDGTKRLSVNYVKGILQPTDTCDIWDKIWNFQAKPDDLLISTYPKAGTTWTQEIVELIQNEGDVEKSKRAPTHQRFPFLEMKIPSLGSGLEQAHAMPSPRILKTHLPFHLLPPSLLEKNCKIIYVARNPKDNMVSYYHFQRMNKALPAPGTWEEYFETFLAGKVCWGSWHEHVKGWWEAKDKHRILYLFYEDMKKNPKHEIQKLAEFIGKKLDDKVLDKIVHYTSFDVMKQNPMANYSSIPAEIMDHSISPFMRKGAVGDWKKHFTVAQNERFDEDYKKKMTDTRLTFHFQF
Sequence of Sulfotransferase 1C2 (O00338 whole entry): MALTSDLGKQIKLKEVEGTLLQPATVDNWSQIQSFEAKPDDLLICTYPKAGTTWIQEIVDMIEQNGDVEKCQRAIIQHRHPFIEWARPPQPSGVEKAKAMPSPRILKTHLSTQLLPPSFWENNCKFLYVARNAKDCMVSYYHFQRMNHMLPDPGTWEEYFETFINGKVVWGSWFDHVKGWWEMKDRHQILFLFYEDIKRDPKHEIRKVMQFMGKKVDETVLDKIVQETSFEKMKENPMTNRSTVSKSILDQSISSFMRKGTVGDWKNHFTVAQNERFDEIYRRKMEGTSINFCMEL
T5 sequence (P33261 whole entry, canonical isoform): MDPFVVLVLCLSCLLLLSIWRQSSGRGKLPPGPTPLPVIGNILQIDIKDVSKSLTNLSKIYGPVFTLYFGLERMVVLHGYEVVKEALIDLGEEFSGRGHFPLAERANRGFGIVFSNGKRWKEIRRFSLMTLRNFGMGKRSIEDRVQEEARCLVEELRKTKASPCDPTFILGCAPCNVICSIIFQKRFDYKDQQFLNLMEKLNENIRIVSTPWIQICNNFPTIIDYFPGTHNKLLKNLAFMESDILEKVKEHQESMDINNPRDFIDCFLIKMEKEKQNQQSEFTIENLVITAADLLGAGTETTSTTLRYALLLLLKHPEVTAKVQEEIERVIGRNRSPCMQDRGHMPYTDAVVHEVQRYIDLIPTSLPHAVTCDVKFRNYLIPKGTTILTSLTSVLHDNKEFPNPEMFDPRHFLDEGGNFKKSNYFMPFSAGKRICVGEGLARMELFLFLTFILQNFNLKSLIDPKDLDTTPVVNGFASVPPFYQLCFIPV
Sequence of Sulfotransferase 1A3 (P0DMM9 whole entry, canonical isoform): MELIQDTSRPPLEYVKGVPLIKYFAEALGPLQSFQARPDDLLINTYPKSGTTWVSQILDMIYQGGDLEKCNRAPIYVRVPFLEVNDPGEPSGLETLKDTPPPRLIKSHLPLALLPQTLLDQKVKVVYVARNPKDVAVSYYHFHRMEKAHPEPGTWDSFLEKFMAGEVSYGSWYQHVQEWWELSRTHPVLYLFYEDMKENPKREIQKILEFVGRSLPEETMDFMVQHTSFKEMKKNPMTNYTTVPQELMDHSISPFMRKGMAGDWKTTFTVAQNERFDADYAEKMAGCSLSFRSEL
Sequence of Sulfotransferase 1A1 (P50225 whole entry): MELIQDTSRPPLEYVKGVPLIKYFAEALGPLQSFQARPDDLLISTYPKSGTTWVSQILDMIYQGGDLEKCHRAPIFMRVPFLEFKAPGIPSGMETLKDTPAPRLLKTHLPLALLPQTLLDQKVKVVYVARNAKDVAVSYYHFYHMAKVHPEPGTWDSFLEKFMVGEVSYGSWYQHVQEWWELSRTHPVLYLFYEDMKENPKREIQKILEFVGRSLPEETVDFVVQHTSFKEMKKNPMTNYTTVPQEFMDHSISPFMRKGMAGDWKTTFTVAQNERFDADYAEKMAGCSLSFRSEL
Sequence of Sulfotransferase 1B1 (O43704 whole entry): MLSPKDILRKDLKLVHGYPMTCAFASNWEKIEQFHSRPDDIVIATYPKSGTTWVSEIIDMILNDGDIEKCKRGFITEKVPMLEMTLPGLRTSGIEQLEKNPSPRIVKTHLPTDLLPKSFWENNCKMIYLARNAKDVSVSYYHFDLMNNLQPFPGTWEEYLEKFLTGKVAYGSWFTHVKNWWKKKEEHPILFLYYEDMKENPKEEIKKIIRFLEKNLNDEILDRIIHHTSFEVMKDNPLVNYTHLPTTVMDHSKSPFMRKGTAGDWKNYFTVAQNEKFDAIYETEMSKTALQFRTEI

With `COc1ccc2[nH]c(SCc3ncc(C)c(OC)c3C)nc2c1` [UFIPRAZOLE] the Activity [1] was “antagonist”.
With `NNC(=O)c1ccncc1` [ISONIAZID] the Activity (Cytochrome P450 2E1 [2]) was “Inducer”.
In the case of `Cc1ccccc1/N=N/c1ccc(NC(=O)c2ccnn2C)c(C)c1`, the Activity [1] is reported as “antagonist”.
With `c1cn[nH]c1` [PYRAZOLE] the Activity (Cytochrome P450 2A6 [3]) was “Inducer”.
In the case of `CN1CCC[C@H]1c1cccnc1` [NICOTINE], the Activity (Cytochrome P450 2A6 [4]) is reported as “Substrate”.
With `CCO` [ALCOHOL] the Activity (Cytochrome P450 2E1 [2]) was “Inducer”.
With `C[C@@H]1C[C@H]2[C@@H]3CCC4=CC(=O)C=C[C@]4(C)[C@@]3(F)[C@@H](O)C[C@]2(C)[C@@]1(O)C(=O)CO` [DEXAMETHASONE] the Activity (Cytochrome P450 2A6 [3]) was “Inducer”.
For `COc1ccc2[nH]c([S+]([O-])Cc3ncc(C)c(OC)c3C)nc2c1` (stereo not drawn) [OMEPRAZOLE], the Activity (Cytochrome P450 1A2) was “Inducer”, the Activity [5] was “agonist” and the Activity (Cytochrome P450 2C19 [6]) was “Substrate”.
With `O=c1ccc2ccccc2o1` [COUMARIN] the Activity (Cytochrome P450 2A6 [4]) was “Substrate”.
For `CC(=O)N(O)c1ccc2c(c1)Cc1ccccc1-2`, the Activity (Sulfotransferase 1C2) was “Substrate”, the Activity (Sulfotransferase 1A2) was “Substrate” and the Activity (Sulfotransferase 1C4) was “Substrate”.
In the case of `Clc1cc2c(cc1Cl)Oc1cc(Cl)c(Cl)cc1O2` [2,3,7,8-TETRACHLORODIBENZO-P-DIOXIN], the Activity (Cytochrome P450 1A2) is reported as “Inducer” and the Activity [5] is reported as “agonist”.
`O=[N+]([O-])c1ccc(O)cc1` [P-NITROPHENOL] was tested, and the Activity (Sulfotransferase 1C2) was “Substrate”, the Activity (Sulfotransferase 1B1) was “Substrate” and the Activity [7] was “Substrate”. The Activity (Sulfotransferase 1A1) was “Substrate”, the Activity (Sulfotransferase 1A2) was “Substrate” and the Activity (Sulfotransferase 4A1) was “Substrate”. For the same molecule, the Activity (Sulfotransferase 1A3) was “Substrate”, the Activity (Sulfotransferase 1C4) was “Substrate” and the Activity (Cytochrome P450 2E1 [8]) was “Substrate”.
`CO[C@H]1/C=C/O[C@@]2(C)Oc3c(C)c(O)c4c(O)c(c(/C=N/N5CCN(C)CC5)c(O)c4c3C2=O)NC(=O)/C(C)=C\C=C\[C@H](C)[C@H](O)[C@@H](C)[C@@H](O)[C@@H](C)[C@H](OC(C)=O)[C@@H]1C` [RIFAMPIN] was tested, and the Activity (Cytochrome P450 2C19 [9]) was “Inducer”, the Activity (Cytochrome P450 2C8) was “Inducer” and the Activity (Cytochrome P450 2B6) was “Inducer”.

Source: ChEMBL document CHEMBL1743201, “Casarett and Doull's Toxicology The Basic Science of Poisons, 7th edition” (2008)
